Where two headings read alike, the source gives them in different places.
Tests used:
HIV-1 JR-CSF = assay type: cell-based; conditions: JRCSF; peptide at 30 μg/ml; FIG. 49
Protocol: (§1) FIG. 49 is a bar graph showing the ability of peptide […]-NH2 (SEQ ID NO: 8) to block neutralization of HIV-1 by 4E10. Replication competent HIV-1 (SF 162 and JR-CSF), produced in human PBMCs, were assayed for neutralization by 4E10 (100 μg/ml) in TZM-b1 cells, in the presence (white bars) or absence (black bars) of an excess of peptide.
(§2) To further investigate the interaction of peptide analogs and 4E10, the inhibitory effect of the best analogs on neutralization by 4E10 was assessed. Neutralization assays were performed in two different formats. In the first, replication competent HIV-1SF162 was assayed for neutralization using TZM-b1 cells as indicator cells (Wei, X., 2002). Alternatively, a pseudotype assay was used in which recombinant HIV-1JR-CSF virions, competent for a single round of infection, were generated using the luciferase reporter plasmid pNL4-3.Luc.R-E-, as described previously (Connor, R. I., 1995; Zwick, M. B., 2003), and the pseudovirus assayed for neutralization using U87.CD4.CCR5 cells as target cells (Bjorndal, A., 1997). In all cases, the competitor peptide ([…]-NH2; SEQ ID NO: 8) and IgG 4E10 were pre-incubated for 30 minutes at 37° C. […] The degree of virus neutralization was determined as a percentage reduction of viral infectivity against an Ab-free control. […]

HIV-1SF162 = assay type: cell-based; conditions: peptide at 30 μg/ml, FIG. 49
Protocol: as §1, §2

IgG 4E10 = experiment: Competitive ELISA (IC50): peptide competes with biotinylated 4E10-epitope peptide for IgG 4E10; assay type: binding, human
Protocol: IC50, were determined by competitive ELISA using a constant concentration of biotinylated peptide and IgG with a variable concentration of gp41 peptides. Microwells were coated overnight at 4° C. with 50 μl PBS containing neutravidin (Pierce; 4 μg/ml). […] A mixture of a biotinylated 4E10-epitope peptide, […](biotin)-NH2 (SEQ ID NO: 88) (20 nM), IgG 4E10 (0.2 nM), and the competing peptide analog (3-fold dilution series starting at 10 μM) in 0.4% non-fat dry milk, 0.02% Tween and PBS was incubated in a separate 96-well plate at 37° C. for 2 hours. After washing the blocked plate, the mixture of 4E10, biotinylated peptide and competing peptide was added to the wells. After 20 minutes at room temperature, the Wells were washed five times, and a 1:500 dilution of goat anti-human IgG F(ab′)2 HRP conjugate (Pierce) was added. Following incubation at RT for 40 minutes, the wells were washed five times, and developed by adding 50 μl of TMB solution (Pierce) according to the manufacturer's instructions. After ˜20 minutes, wells containing TMB solution were stopped by adding 50 μl of H2SO4 (2M) and the O.D. at 450 nm was read on a microplate reader (Molecular Devices). The concentration of competitor peptide corresponding to a half-maximal signal (IC50) was determined by interpolation of the resulting binding curve. Each peptide competitor was tested in duplicate in at least two separate experiments.
IC50s were determined by competitive ELISA using a constant concentration of biotinylated peptide and IgG with a variable concentration of gp41 peptides. Microwells were coated overnight at 4° C. with 50 μl PBS containing neutravidin (Pierce; 4 μg/ml). […] Meanwhile, a mixture of a biotinylated 4E10-peptide epitope, […](biotin)-NH2 (SEQ ID NO: 88), (20 nM), IgG 4E10 (0.2 nM), and the competing peptide analogue (3-fold dilution series starting at 10 μM) in 0.4% NFDM, 0.02% Tween and PBS was incubated in a separate 96-well plate at 37° C. for 2 h. After washing the blocked plate, the mixture of 4E10, biotinylated peptide and competing peptide was added to the wells. After 20 min at room temperature, the wells were washed five times, and a 1:500 dilution of goat anti-human IgG F(ab′)2 HRP conjugate (Pierce) was added. Following incubation at RT for 40 min, the wells were washed five times, and developed by adding 50 μl of H2SO4 (2 M), and the O.D. at 450 nm was read on a microplate reader (Molecular Devices). The concentration of competitor peptide corresponding to a half-maximal signal (IC50) was determined by interpolation of the resulting binding curve. Each peptide competitor was tested in duplicate in at least two separate experiments.

In the case of “NWFDITNWLWYIKKKK [Peptide 94-1, NWFDITNWLWYIKKKK-NH2]”, the “block of neutralization by 4E10” value (HIV-1 JR-CSF) is reported as “could block the neutralization”, the “block of neutralization by 4E10” value (HIV-1SF162) is reported as “could block the neutralization” and the “improvement in 4E10 binding (IC50) over the starting peptide NWFDITNWLWKKKK-NH2” value (IgG 4E10) is reported as 4 fold. For the same sequence, the “improvement in IC50 compared to KGND” value (IgG 4E10) was “over 1000 fold”, the IC50 (IgG 4E10; Table 5, unconstrained peptide analogs, 4E10 binding, read-out: IC50) was 10 nM and the IC50 (IgG 4E10; Table 7, 4E10 peptide epitopes, read-out: IC50) was 10 nM. The “higher affinity of 4E10 than to the original peptide KGND” value (IgG 4E10; as determined by surface plasmon resonance and ELISA) was “approximately 10^3 fold” and the IC50 (IgG 4E10; read-out: IC50 (4E10 binding, competitive ELISA)) was 10 nM.

Reference: patent publication US20110124842A1 (priority 2003, published 2011)
